Values of other authors, collected in US20250144159A1, “COMPOSITION COMPRISING A MIXTURE OF DHA AND/OR EPA AND A PHOSPHOLIPID OF PLANT ORIGIN” (POLARIS, priority 2022, published 2025).

Details: oral intake; compared with DHA in triglyceride (TG) form

Row | Compound | cerebral capture of DHA
1 | CC/C=C\C/C=C\C/C=C\C/C=C\C/C=C\C/C=C\CCC(=O)OC(CO)COP(=O)([O-])OCC[N+](C)(C)C (centres unmarked) [lysoPC-DHA] | improves
2 | CCC=CCC=CCC=CCC=CCC=CCC=CCCC(=O)OC(COC(C)=O)COP(=O)([O-])OCC[N+](C)(C)C (centres unmarked) [AceDoPC] | improves
